Experimental findings from patent US20240335425A1, “PHARMACEUTICAL COMPOSITIONS OF ALPHA-2-ADRENERGIC RECEPTOR AGONISTS AND THEIR USE FOR IMPROVING VISION” (Allergan, Inc., priority 2020, published 2024) are described below.

Series [1] addresses T1, bovine alpha adrenergic 1A receptor (Bos taurus, UniProt P18130).
T1 construct: expressed in transfected cells
T1 sequence (P18130 1-466): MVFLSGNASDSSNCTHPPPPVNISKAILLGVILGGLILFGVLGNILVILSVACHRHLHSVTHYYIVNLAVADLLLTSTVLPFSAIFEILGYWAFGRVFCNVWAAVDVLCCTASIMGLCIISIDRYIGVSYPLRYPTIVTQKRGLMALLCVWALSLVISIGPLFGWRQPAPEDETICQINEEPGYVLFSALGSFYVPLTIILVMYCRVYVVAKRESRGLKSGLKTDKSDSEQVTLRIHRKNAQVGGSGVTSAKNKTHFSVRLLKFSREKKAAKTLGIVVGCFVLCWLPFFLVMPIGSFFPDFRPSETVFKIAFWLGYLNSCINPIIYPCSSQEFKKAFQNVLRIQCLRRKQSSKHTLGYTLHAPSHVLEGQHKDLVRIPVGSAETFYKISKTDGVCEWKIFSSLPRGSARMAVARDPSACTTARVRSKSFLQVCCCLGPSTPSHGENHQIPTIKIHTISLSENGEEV
Nature of the series: FLIPR calcium assay, HEK293 cells stably expressing bovine alpha 1A receptor. The format is cell-based. Particulars: HEK293 stable cell line, peak calcium signal; read-out: bovine alpha1A EC50 (nm). How it is done:
An in vitro FLIPR (fluorometric image plate reader) assay was performed on several compounds, including the compound of Formula I (entry 1 in Table 1).
Specifically, four HEK293 stable cell lines were used in the FLIPR assay. The HEK293 cell line which stably expressed the bovine alpha adrenergic 1A receptor was used to characterize the alpha1 pharmacology. The alpha-2 adrenergic receptor family is a G coupled G-protein receptor. Therefore, in order to use these cell lines in the calcium based FLIPR assay, the chimeric G-protein Gqi5 was used to force the coupling of the human alpha-2A, alpha-2B, and alpha-2C receptors to the calcium pathway. […]
The receptor activation was initiated by the addition of the appropriate dilutions of compounds and the transient calcium signal was captured. The peak height of the calcium curve was determined and utilized for calculation of EC50 and relative efficacy values using Activity Base software. EC50 was calculated using a 4 Parameter Logistic Equation: y=A+((B−A)/(1+((C/x)^D))) where A and B represents the bottom and top plateau of the curve; C represents the EC50 value; D represents the slope factor; and x and y represent the original x (drug concentration) and y (fluorescence signal, RFU) values.

How the values of series [2] were obtained:
Aliquots of the PBS only curve were quenched at time zero to be used as stability controls and calibration standards. Following centrifugation, samples were analyzed by LC-MS/MS bioanalysis. Back-calculated concentrations using the assay PBS curve were used for binding and stability calculations.

For a further series, the system named is healthy participants. Nature of the series: Clinical Study 1 in healthy individuals, single ascending dose. Particulars: left eye, 0.01% to 0.1% (w/v). The format is in vivo, human. The source says: In this study, 36 healthy participants (male and female; 40 to 65 years of age) are randomized to participate in single-ascending dose cohorts (designated Cohorts 1, 2, and 3 as shown in Table 9 below) to evaluate safety, tolerability, pharmacokinetics, and target engagement of the compound of Formula I. In each cohort of this study 12 participants are randomized in a 3:1 ratio to receive an ophthalmic solution containing the compound of Formula I (9 participants) or vehicle (3 participants). Participants that are randomized to receive the ophthalmic solution containing the compound of Formula I are administered a single drop of the ophthalmic solution containing the compound of Formula I at doses ranging from 0.01% (w/v) to 0.1% (w/v) (Formulations A-C; see Examples 8-10), with the option of also using a 0.3% (w/v) dose (Formulation D; see Example 11), in the left eye, as indicated in Table 7 below (“SD” means single dose and “OS” means left eye).
Each participant is admitted to the study site on the evening before dosing (Day −1). […]
Safety and tolerability are evaluated by monitoring participants in the three cohorts of this study for exhibition/reporting of adverse events and monitoring characteristics/assessments such as vital signs, electrocardiogram measurements, clinical laboratory assessments, study intervention tolerability and drop comfort assessments, intraocular pressure measurements, slit-lamp biomicroscopy, and dilated funduscopic examination. Systemic and local pharmacokinetics of the compound of Formula I are evaluated by measuring plasma and tear concentrations of the compound of Formula I in the participants and also determining pharmacokinetic parameters such as area under the curve, clearance, half-life, maximum concentration, time to maximum concentration. Target engagement is measured by measuring the pupil size of the participants during the study. […]

In another series the test system is Dutch Belted rabbits. Nature of the series: In vivo rabbit miosis model (pupil diameter after single topical dose). Particulars: for animals with greater than 2.5 mm reduction in pupil size from baseline: 0.1% w:v, scotopic (<10 lux), n=6. How it is done: Female Dutch Belted rabbits (Covance, Princeton, New Jersey) weighing between 2-4 kg were used for these studies. […] For topical dosing, eye drops (volume=35 μl) were instilled into the lower conjunctival sac of the test eye.
Pupil diameter was measured in both the treated and untreated eye with an Optistick to the nearest 0.5 mm. […]

`Cc1c(N=C2NCCN2)ccc2[nH]cnc12` [Compound 1]: the EC50 in series [1] came out at 286 nM. Moreover, the “melanin binding (in words)” value in series [2] was “no significant melanin binding”. In addition, in the series with healthy participants, the “pupil diameter compared with vehicle” value is “decrease in pupil diameter”; the safety and tolerability result is “acceptable safety and tolerability profiles”; the systemic exposures entry is on record as “sufficient safety margins”. The “animals with greater than 2.5 mm reduction in pupil size from baseline” value with Dutch Belted rabbits (after 6 hours) is “more than half”. For the same compound, the “animals with greater than 2.5 mm reduction in pupil size from baseline” value in the series on Dutch Belted rabbits (two hours after dosing) was “virtually all animals”. Moreover, the “miotic action (peak pupil constriction and duration)” value in the series with Dutch Belted rabbits (room lighting conditions, versus brimonidine) was “greater miotic action than brimonidine”. In the series with Dutch Belted rabbits (topical dose), the “effect on pupil constriction compared to Compound 3” value is recorded as “greater effect on pupil constriction”. Further, the “pupil constriction at 9 hours after dosing” value in the series on Dutch Belted rabbits (topical dose, 9 hours) was “significant pupil constriction”. Further, the “miotic efficacy compared with other alpha adrenergic receptor agonists” value in the series with Dutch Belted rabbits (topical dose, low-light conditions (2-10 Lux)) was “best miotic effect”.
